The conditions of data set [1]: rats; cited from earlier work.
In the next data set the test system is synaptosomes. The data set is described as follows: Western blot of synaptosomes from treated cells. The settings on record: RA 10 μM, Bryostatin-1 0.27 nM, 72 hr. The data set is classed as cell-based, human. The method, then: Synaptosomes from undifferentiated and differentiated cells were prepared following the method described earlier (29). See Nagy et al. (1984) J Neurochem 43, 1114-1123. Briefly, the cells were washes in 1×PBS and homogenized in 10 volumes of buffer (“buffer1”) containing 0.32 M sucrose, 5 mM HEPES pH 7.2, and 0.1 mM EDTA in a Teflon homogenizer. The homogenate was centrifuged at 1000×g for 10 min to remove the nuclear fraction. The supernatant obtained was again spun at 12000×g for 20 min at 4° C. The pellet thus obtained was resuspended in 3 volumes of buffer1 and was layered on to the 16%/10%/8.5% Percoll gradient prepared from the stock isoosmotic percoll containing 9 parts 100% percoll, and 1 part 2.5 M sucrose. The preparation was centrifuged at 15000×g for 20 min at 4° C. Synaptosomes collected from the layer between 10% and 16% gradient was washed with 1×PBS and was centrifuged at 20000×g for 15 min. The purified synaptosomes were homogenized in homogenizing buffer and were subjected to western blot as described before.
Western blot analysis was performed after 72 hr.

For data set [2] the following is noted: cited from earlier work.
In data set [3] the test system is primary rat hippocampal neurons. The data set is described as follows: Neuroprotection against ASPD induced toxicity, MTT, primary neurons. The data set is classed as cell-based. The method, then:
Viability of cells was measured by MTT assay. MTT (3-(4,5-Dimethylthiazol-2-yl)-2,5-diphenyltetrazolium bromide) is a tetrazolium salt that is cleaved to formazan by the succinate dehydrogenase, which is only active in viable cells. After solubilization of the formazan, the amount of dye can be quantified with a microplate reader at 570 nm along with a reference of 630 nm. For MTT assay, 5×104 primary rat hippocampal neurons from 18-day-old embryonic Sprague-Dawley rat brains were plated on each well of 24-well plates coated with poly-D-lysine. After treatment, the cells were washed with 1×PBS and were incubated with 200 μl of 1 mg/ml MTT solution (Sigma, USA) at 37° C. for 2 hr. Then the MTT-solution was removed and the cells were lysed with 200 μl isopropanol containing 0.04 M HCl and 160 mM NaOH for 10 min. Finally, the reading was done at 570 nm and 630 nm. All the samples were done in triplicates and the data was represented as the percentage of control.
All studies used 50 nM ASPDs. The viability of the cells were measured by the MTT assay.

A further data set relates to GSK-3β. In words: Phospho GSK-3β (Ser-9) Western Blot in ASPD treated primary neurons. The data set is classed as cell-based, rat. Particulars: 50 nM ASPD + 100 nM DCPLA-ME. From the text: Phospho GSK-3β expression was normalized against total GSK-3β expression. […] Data are represented as mean±SEM. (Student's t test *. p<0.05; and **, p<0.005 n=3).
Since GSK-3β is a key enzyme in the production of hyperphosphorylated tau protein, and phosphorylation of the Ser-9 residue causes GSK-3β inhibition, increasing phosphorylation of GSK-3β at Ser-9 by PKC could also enhance the protective effect of DCPLA-ME.
Background: Immunoblotting shows a protein as a band on a membrane.

In a further data set the test system is PKC-ε. The data set is described as follows: PKC-ε level in primary neurons (immunofluorescence, Western Blot). The data set is classed as cell-based, rat. The settings on record: ASPD-treated primary neurons, 100 nM DCPLA-ME. The method, then: (§1) Cells were harvested in homogenizing buffer containing 10 mM Tris-Cl (pH 7.4), 1 mM PMSF (phenylmethylsulfonyl fluoride), 1 mM EGTA, 1 mM EDTA, 50 mM NaF, and 20 μM leupeptin and were lysed by sonication. The homogenate was centrifuged at 100,000×g for 15 min at 4° C. to obtain the cytosolic fraction (supernatant) and membrane (pellet). The pellet was resuspended in the homogenizing buffer by sonication. Protein concentration was measured using the Coomassie Plus (Bradford) Protein Assay kit (Pierce, USA). Following quantification, 20 μg of protein from each sample was subjected to SDS-PAGE analysis in 4-20% gradient Tris-Glycine gel (Invitrogen, USA). The separated protein was then transferred to nitrocellulose membrane. The membrane was blocked with BSA at room temperature for 15 min and was incubated with primary antibody over night at 4° C. After the incubation, it was washed three times with TBS-T (Tris Buffered saline-Tween 20) and further incubated with alkaline phosphatase conjugated secondary antibody (Jackson Immunoresearch Laboratories, USA) at 1:10,000 dilution for 45 min. The membrane was finally washed three times with TBS-T and developed using the 1-step NBT-BCIP substrate (Pierce, USA). Western Blot was imaged in the ImageQuant RT-ECL (GE Life Sciences, Piscataway, N.J.) and densitometric quantification was performed using the IMAL software (Blanchette Rockefeller Neurosciences Institute, Morgantown, W. Va.). For translocation assays, PKC activation was represented as the percentage of total protein in the membrane (membrane/cytosol+membrane).
Cells were grown in two chambered slides (Nunc, USA) at low density. For immunofluorescence staining, the cells were washed with PBS (pH 7.4) and fixed with 4% paraformaldehyde for 4 min. Following fixation, the cells were blocked and permeabilized with 5% serum and 0.3% Triton X 100 in 1×PBS for 30 min. […] Six individual fields at 63× oil lens magnification were analyzed for the mean fluorescence intensity (MFI) in each channel. […]

A further data set deals with synaptophysin. In words: Synaptophysin Western Blot in primary rat hippocampal neurons. It counts as cell-based. The settings on record: ASPD + DCPLA-ME. The method, then: as §1

With `CCC/C=C/C=C/C(=O)O[C@H]1/C(=C/C(=O)OC)C[C@H]2C[C@H]([C@@H](C)O)OC(=O)C[C@H](O)C[C@@H]3C[C@H](OC(C)=O)C(C)(C)C(O)(C[C@@H]4C/C(=C/C(=O)OC)C[C@H](/C=C/C(C)(C)[C@]1(O)O2)O4)O3` [Bryostatin-1], the “acute LD50” value in data set [1] was 0.068 mg/kg. Besides, in the data set with synaptosomes, the “increase in PKC-ε level in synaptosomes” value is recorded as 2 fold. Moreover, the toxicity result in data set [2] (at 20 μg/week) is on record as “no toxicity”. In addition, in data set [2] (in vivo), the “dose that may be associated with muscle pain” value was “more than 35 μg/week”. For the same molecule, in data set [3] (50 nM ASPDs alone (ASPD) or with the treatment named, 24 hr), the “viability (Example 25)” value is reported as 71.38%±2.34. The viability at 0.00027 µM in data set [3] (Rattus norvegicus, Hippocampal neuron, 20 h, read-out: viability restored in ASPD-treated primary neurons) stood at 73.2 ± 3.6%.
Turning to `CCCCCC1CC1CC1CC1CCCCCCCC(=O)OC` (stereo not drawn) [DCPLA-ME, methyl 8-(2-((2-pentylcyclopropyl)methyl)cyclopropyl)octanoate], the “phosphorylation of Ser-9 of GSK-3β (in words)” value with GSK-3β is on record as “restored phosphorylation of the Ser-9 residue of GSK-3β to normal levels”. In addition, the “PKC-ε protein level (Western Blot, in words)” value in the data set with PKC-ε is “restored the PKC-ε protein level to normal”. In addition, the “synaptophysin expression by Western Blot (in words)” value in the data set on synaptophysin is given as “maintained the expression similar to control”.

What is called viability is the share of living cells, or the viability signal relative to a control.

The values are drawn from US10821079B2, “PKC activators and combinations thereof” (Cognitive Research Enterprises, Inc., priority 2011, dated 2020).
